pKi: −log10 of the molar value.

In the first assay the target is T1, JNK1α1 (Homo sapiens, UniProt P45983).
T1 construct: catalytic domain containing amino acids 1-364 and N-terminal hexahistidine tag; hexahistidine (His6) (N); made in house; host or cells: E. coli BL21 (DE3)
T1 sequence (P45983 1-364): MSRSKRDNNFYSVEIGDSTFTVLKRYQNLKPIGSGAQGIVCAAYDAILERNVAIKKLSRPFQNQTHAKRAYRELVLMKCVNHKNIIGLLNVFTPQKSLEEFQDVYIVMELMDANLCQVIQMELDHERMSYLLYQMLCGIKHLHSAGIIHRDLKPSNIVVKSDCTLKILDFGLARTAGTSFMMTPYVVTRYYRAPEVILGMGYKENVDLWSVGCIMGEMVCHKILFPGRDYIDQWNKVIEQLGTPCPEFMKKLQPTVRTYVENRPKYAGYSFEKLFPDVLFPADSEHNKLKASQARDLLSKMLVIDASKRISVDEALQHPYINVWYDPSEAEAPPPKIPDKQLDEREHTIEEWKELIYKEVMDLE
As to the kind of experiment: Coupled spectrophotometric (PK/LDH) JNK1α1 assay: % inhibition and Ki determination. The format is biochemical. The settings on record: @1 uM; read-out: % Inhibition JNK-1. In short, it runs like this: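 Initial rates were taken from the absorbance decrease at 340 nm at 30° C. Ki was fitted with a tight-binding model over 11 concentrations (top 100 μM); single-point inhibition was tested at 1 or 10 μM.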
The inhibition is the percentage by which the read-out fell short of the control. With `O=C(NCCc1nc2ccccc2[nH]1)c1cccc2cnc(N[C@H]3CC[C@H](O)CC3)nc12` [Example 480, N-[2-(1H-benzimidazol-2-yl)ethyl]-2-[(trans-4-hydroxycyclohexyl)amino]quinazoline-8-carboxamide], the inhibition at 1 µM was found to be 11%.

Regarding `CCc1ccc(C)nc1NC(=O)c1cccc2cnc(N[C@H]3CC[C@H](O)CC3)nc12` [Example 314, N-(3-ethyl-6-methylpyridin-2-yl)-2-[(trans-4-hydroxycyclohexyl)amino]quinazoline-8-carboxamide], the inhibition at 1 µM came to 11%.

`O=C(NCCN1CCNC1=O)c1cccc2cnc(N[C@H]3CC[C@H](O)CC3)nc12` [Example 476, 2-[(trans-4-hydroxycyclohexyl)amino]-N-[2-(2-oxoimidazolidin-1-yl)ethyl]quinazoline-8-carboxamide]: the inhibition at 1 µM came to 10%.

As for `O[C@H]1CC[C@H](Nc2ncc3ccc(OC[C@H]4CCCN4Cc4ccccc4)cc3n2)CC1` [Example 294, trans-4-[(7-{[(2R)-1-benzylpyrrolidin-2-yl]methoxy}quinazolin-2-yl)amino]cyclohexanol], the inhibition at 1 µM was determined as 24%.

In the case of `CCn1cc(CNC(=O)c2cccc3cnc(N[C@H]4CC[C@H](O)CC4)nc23)cn1` [Example 489, N-[(1-ethyl-1H-pyrazol-4-yl)methyl]-2-[(trans-4-hydroxycyclohexyl)amino]quinazoline-8-carboxamide], the inhibition at 1 µM came out at 16%.

In the case of `CC(C)Nc1ncc2ccc(C(=O)NCCO)cc2n1` [Example 431, N-(2-hydroxyethyl)-2-(isopropylamino)quinazoline-7-carboxamide], the inhibition at 1 µM came out at 15%.

Still in this assay, the particulars now being: JNK-1.
In general, pKi refers to the negative decadic logarithm of the Ki, by convention in mol/L. A low value points to a large Ki. Take `O=C(NC1CCc2ccccc21)c1ccc2cnc(N[C@H]3CC[C@H](O)CC3)nc2c1` (stereo partly drawn) [Example 94, N-(2,3-dihydro-1H-inden-1-yl)-2-[(trans-4-hydroxycyclohexyl)amino]quinazoline-7-carboxamide]: the pKi is 6.83.

In turn, `O=C(Nc1nccc(O)n1)c1cccc2cnc(N[C@H]3CC[C@H](O)CC3)nc12` [Example 125, 2-[(trans-4-hydroxycyclohexyl)amino]-N-(4-hydroxypyrimidin-2-yl)quinazoline-8-carboxamide] gave a pKi of 6.28.

Take `O=C(NC1(CO)CCCC1)c1ccc2cnc(NC3CCCCC3)nc2c1` [Example 401, 2-(cyclohexylamino)-N-[1-(hydroxymethyl)cyclopentyl]quinazoline-7-carboxamide]: the pKi is 6.31.

Compound `O=C(N[C@@H]1COC[C@H]1O)c1cccc2cnc(N[C@H]3CC[C@H](O)CC3)nc12` (relative stereo) [Example 139, 2-[(trans-4-hydroxycyclohexyl)amino]-N-[(trans)-4-hydroxytetrahydrofuran-3-yl]quinazoline-8-carboxamide] had a pKi of 7.80.

`O=C(NCCN1CCOCC1)c1cccc2cnc(N[C@H]3CC[C@H](O)CC3)nc12` [Example 116, 2-[(trans-4-hydroxycyclohexyl)amino]-N-(2-morpholin-4-ylethyl)quinazoline-8-carboxamide] had a pKi of 5.61.

In turn, `CC(C)(O)CNC(=O)c1cccc2cnc(N[C@H]3CC[C@H](NS(C)(=O)=O)CC3)nc12` [Example 130, N-(2-hydroxy-2-methylpropyl)-2-({trans-4-[(methylsulfonyl)amino]cyclohexyl}amino)quinazoline-8-carboxamide] gave a pKi of 6.85.

For `COc1ncccc1NC(=O)c1ccc2cnc(N[C@H]3CC[C@H](O)CC3)nc2c1` [Example 362], the negative logarithm of the Ki (pKi) is 5.74.

Regarding `CCN[C@H]1CC[C@H](Nc2ncc3cccc(OC4CCOCC4)c3n2)CC1` [Example 190, trans-N-ethyl-N′-[8-(tetrahydro-2H-pyran-4-yloxy)quinazolin-2-yl]cyclohexane-1,4-diamine], the negative logarithm of the Ki (pKi) was 6.47.

For `O[C@H]1CC[C@H](Nc2ncc3ccc(OCc4ccccn4)cc3n2)CC1` [Example 153, trans-4-{[7-(pyridin-2-ylmethoxy)quinazolin-2-yl]amino}cyclohexanol], the pKi was 6.73.

These data come from patent publication US7998978B2 (Pfizer Inc., priority 2006, dated 2011).
